Experimental data from ChEMBL document CHEMBL4321839, “Structure-activity relationships (SAR) of triazine derivatives: Promising antimicrobial agents” (Eur J Med Chem, 2020).
In brackets after ≈: the same amount, converted by molar mass.

Key:
Type in all cases: functional
[1] = tested on: Escherichia coli; assay: Antimicrobial activity against Escherichia coli ATCC 25922 assessed as reduction in microbial growth after 24 to 48 hrs by microdilution susceptibility test
[2] = tested on: Staphylococcus aureus; assay: Antimicrobial activity against Staphylococcus aureus […] assessed as reduction in microbial growth after 24 to 48 hrs by microdilution susceptibility test
[3] = tested on: Lacticaseibacillus casei; assay: Antibacterial activity against Lactobacillus casei NCIM-2651 assessed as reduction in microbial growth incubated for 24 hrs by broth dilution method; conditions: NCIM-2651, 24 h
[4] = tested on: Staphylococcus aureus; assay: Antimicrobial activity methicillin-resistant against Staphylococcus aureus
[5] = tested on: Escherichia coli; assay: Antimicrobial activity multi drug-resistant against Escherichia coli
[6] = tested on: Bacillus cereus; assay: Antimicrobial activity against Bacillus cereus NCIM-2156 assessed as zone of inhibition at 5 ug after 24 hrs by disk diffusion method; conditions: NCIM-2156, 24 h, read-out: IZ
[7] = tested on: Pseudomonas aeruginosa; assay: Antimicrobial activity against Pseudomonas aeruginosa NCIM-2036 assessed as zone of inhibition at 5 ug after 24 hrs by disk diffusion method; conditions: NCIM-2036, 24 h, read-out: IZ
[8] = tested on: Staphylococcus aureus; assay: Antimicrobial activity against Staphylococcus aureus NCIM-2079 assessed as zone of inhibition at 5 ug after 24 hrs by disk diffusion method; conditions: NCIM-2079, 24 h, read-out: IZ
[9] = tested on: Bacillus subtilis; assay: Antimicrobial activity against Bacillus subtilis NCIM-2063 assessed as zone of inhibition at 5 ug after 24 hrs by disk diffusion method; conditions: NCIM-2063, 24 h, read-out: IZ
[10] = tested on: Candida albicans; assay: Antifungal activity against Candida albicans NCIM-3102 at 18 to 24 hrs by CLSI based alamar blue assay
[11] = tested on: Nakaseomyces glabratus; assay: Antifungal activity against Candida glabrata NCIM-3266 at 18 to 24 hrs by CLSI based alamar blue assay
[12] = tested on: Cryptococcus neoformans; assay: Antifungal activity against Cryptococcus neoformans NCIM-3542 at 72 hrs by CLSI based alamar blue assay; conditions: NCIM-3542, 72 h
[13] = tested on: Aspergillus niger; assay: Antifungal activity against Aspergillus niger NCIM-620 at 72 hrs by CLSI based alamar blue assay; conditions: NCIM-620, 72 h
[14] = tested on: Bacillus subtilis; assay: Antimicrobial activity against Bacillus subtilis NCIM-2063 assessed as reduction in microbial growth after 24 hrs by CLSI based broth dilution method; conditions: NCIM-2063, 24 h
[15] = tested on: Escherichia coli; assay: Antimicrobial activity against Escherichia coli NCIM-2065 assessed as reduction in microbial growth after 24 hrs by CLSI based broth dilution method; conditions: NCIM-2065, 24 h
[16] = tested on: Pseudomonas aeruginosa; assay: Antimicrobial activity against Pseudomonas aeruginosa NCIM-2036 after 24 hrs by CLSI based broth dilution method; conditions: NCIM-2036, 24 h
[17] = tested on: Proteus vulgaris; assay: Antimicrobial activity against Proteus vulgaris NCIM-2027 assessed as reduction in microbial growth after 24 hrs by CLSI based broth dilution method; conditions: NCIM-2027, 24 h

## O=C(CNc1nc(NCC(=O)N/N=C/c2ccc(Cl)cc2)nc(N2CCN(c3nc(NCC(=O)N/N=C/c4ccc(Cl)cc4)nc(NCC(=O)N/N=C/c4ccc(Cl)cc4)n3)CC2)n1)N/N=C/c1ccc(Cl)cc1
[1]
  MIC: 12.5 to 25 µg/mL
[2]
  MIC: 12.5 to 25 µg/mL

## Nc1nc(Nc2ccccc2)nc(Nc2nc(-c3ccc(Cl)cc3)cs2)n1
[3]
  MIC: 3.12 µg/mL

## O=C(CNc1nc(NCC(=O)N/N=C/c2ccc(Cl)cc2)nc(Nc2ccc(-c3ccc(Nc4nc(NCC(=O)N/N=C/c5ccc(Cl)cc5)nc(NCC(=O)N/N=C/c5ccc(Cl)cc5)n4)cc3)cc2)n1)N/N=C/c1ccc(Cl)cc1
[1]
  MIC: 12.5 to 25 µg/mL
[2]
  MIC: 12.5 to 25 µg/mL

## O=C(O)C1=CC(C2CC2)C2=C(CC(F)C3=NN=C(c4ccc(Cl)cc4)CN32)C1=O (stereo not drawn)
[4]
  MIC: 8 µg/mL (≈ 19.3 µM)
[5]
  MIC: 8 µg/mL (≈ 19.3 µM)

## O=C(O)C1=CC(C2CC2)C2=C(CC(F)C3=NN=C(c4cccc(Cl)c4)CN32)C1=O (stereo not drawn)
[4]
  MIC: 8 µg/mL (≈ 19.3 µM)
[5]
  MIC: 8 µg/mL (≈ 19.3 µM)

## Cc1ccc(Nc2nc(Nc3ccc(C)cc3)nc(N3CCN(C(=S)Nc4ccnc5cc(Cl)ccc45)CC3)n2)cc1
[6]
  zone of inhibition at 5 µg/disc: 9 to 17 mm
[7]
  zone of inhibition at 5 µg/disc: 9 to 17 mm
[8]
  zone of inhibition at 5 µg/disc: 16 to 17 mm
[9]
  zone of inhibition at 5 µg/disc: 16 to 17 mm

## S=C(Nc1ccnc2cc(Cl)ccc12)N1CCN(c2nc(Nc3ccc(Br)cc3)nc(Nc3ccc(Br)cc3)n2)CC1
[6]
  zone of inhibition at 5 µg/disc: 9 to 17 mm
[7]
  zone of inhibition at 5 µg/disc: 9 to 17 mm
[8]
  zone of inhibition at 5 µg/disc: 16 to 17 mm
[9]
  zone of inhibition at 5 µg/disc: 16 to 17 mm

## COc1ccccc1C1=NN=C2C(F)CC3=C(C(C4CC4)C=C(C(=O)O)C3=O)N2C1 (stereo not drawn)
[4]
  MIC: 1 µg/mL (≈ 2.44 µM)
[5]
  MIC: 0.5 µg/mL (≈ 1.22 µM)

## Nc1ccc(C2=NN=C3C(F)CC4=C(C(C5CC5)C=C(C(=O)O)C4=O)N3C2)cc1 (stereo not drawn)
[4]
  MIC: 0.25 µg/mL (≈ 0.634 µM)

## S=C(Nc1ccnc2cc(Cl)ccc12)N1CCN(c2nc(Nc3ccc(Cl)cc3)nc(Nc3ccc(Cl)cc3)n2)CC1
[6]
  zone of inhibition at 5 µg/disc: 9 to 17 mm
[7]
  zone of inhibition at 5 µg/disc: 9 to 17 mm
[8]
  zone of inhibition at 5 µg/disc: 16 to 17 mm
[9]
  zone of inhibition at 5 µg/disc: 16 to 17 mm

## O=[N+]([O-])c1ccc(Nc2nc(Nc3ccc([N+](=O)[O-])cc3)nc(N3CCN(C(=S)Nc4ccnc5cc(Cl)ccc45)CC3)n2)cc1
[6]
  zone of inhibition at 5 µg/disc: 9 to 17 mm
[7]
  zone of inhibition at 5 µg/disc: 9 to 17 mm
[8]
  zone of inhibition at 5 µg/disc: 16 to 17 mm
[9]
  zone of inhibition at 5 µg/disc: 16 to 17 mm

## c1ccc(-c2csc(Nc3nc(N4CCOCC4)nc(N4CCOCC4)n3)n2)cc1
[10]
  MIC: 0.63 to 5 µg/mL (≈ 1.48 to 11.8 µM)
[11]
  MIC: 0.63 to 5 µg/mL (≈ 1.48 to 11.8 µM)
[12]
  MIC: 0.63 to 5 µg/mL (≈ 1.48 to 11.8 µM)
[13]
  MIC: 0.63 to 5 µg/mL (≈ 1.48 to 11.8 µM)

## O=[N+]([O-])c1cccc(Nc2nc(NC3=NC(c4ccccc4O)=CC(c4ccccc4[N+](=O)[O-])S3)nc(Nc3cccc([N+](=O)[O-])c3)n2)c1 (stereo not drawn)
[14]
  MIC: 6.25 µg/mL
[15]
  MIC: 12.5 µg/mL

## OC(Cn1cncn1)(Cn1cncn1)c1ccc(F)cc1F [FLUCONAZOLE]
[10]
  MIC: 0.63 µg/mL (≈ 2.06 µM)
[11]
  MIC: 0.63 µg/mL (≈ 2.06 µM)

## CC1=NN(c2ccccc2)C(C)C1Nc1nnc(Sc2nc(Nc3ccc(Cl)cc3)nc(Nc3ccc(Cl)cc3)n2)s1 (stereo not drawn)
[16]
  MIC: 6.25 µg/mL (≈ 9.83 µM)

## O=C1CSC(=O)N1c1nc(Nc2cccc(Cl)c2)nc(Nc2cccc(Cl)c2)n1
[17]
  MIC: 3.91 µg/mL

## Clc1ccc(-c2csc(Nc3nc(N4CCOCC4)nc(N4CCOCC4)n3)n2)cc1
[10]
  MIC: 0.63 to 5 µg/mL (≈ 1.37 to 10.9 µM)
[11]
  MIC: 0.63 to 5 µg/mL (≈ 1.37 to 10.9 µM)
[12]
  MIC: 0.63 to 5 µg/mL (≈ 1.37 to 10.9 µM)
[13]
  MIC: 0.63 to 5 µg/mL (≈ 1.37 to 10.9 µM)

## O=[N+]([O-])c1ccc(-c2csc(Nc3nc(N4CCOCC4)nc(N4CCOCC4)n3)n2)cc1
[10]
  MIC: 0.63 to 5 µg/mL (≈ 1.34 to 10.6 µM)
[11]
  MIC: 0.63 to 5 µg/mL (≈ 1.34 to 10.6 µM)
[12]
  MIC: 0.63 to 5 µg/mL (≈ 1.34 to 10.6 µM)
[13]
  MIC: 0.63 to 5 µg/mL (≈ 1.34 to 10.6 µM)

## O=C(O)C1=CC(C2CC2)C2=C(CC(F)C3=NN=C(c4ccc([N+](=O)[O-])cc4)CN32)C1=O (stereo not drawn)
[4]
  MIC: 0.25 to 8 µg/mL (≈ 0.589 to 18.9 µM)
[5]
  MIC: 0.25 µg/mL (≈ 0.589 µM)
